From patent publication US20250081967A1, “PESTICIDALLY ACTIVE HETEROCYCLIC DERIVATIVES WITH SULFOXIMINE CONTAINING SUBSTITUENTS” (SYNGENTA CROP PROTECTION AG, priority 2021, published 2025)

Tests used:
Assay type in all cases: in vivo
[1] = tested on: Spodoptera littoralis; experiment: Activity against Spodoptera littoralis (Egyptian cotton leaf worm), cotton leaf discs; conditions: foliar, 72 h, application rate 200 ppm, L1 larvae, 3 days after infestation, read-out: control (mortality, anti-feeding effect or growth inhibition)
Description: Example B1: Activity Against Spodoptera littoralis (Egyptian Cotton Leaf Worm)
Cotton leaf discs were placed onto agar in 24-well microtiter plates and sprayed with aqueous test solutions prepared from 10′000 ppm DMSO stock solutions. After drying the leaf discs were infested with five L1 larvae. The samples were assessed for mortality, anti-feeding effect, and growth inhibition in comparison to untreated samples 3 days after infestation. Control of Spodoptera littoralis by a test sample is given when at least one of the categories mortality, anti-feedant effect, and growth inhibition is higher than the untreated sample.

[2] = tested on: Diabrotica balteata; experiment: Activity against Diabrotica balteata (corn root worm), maize sprouts; conditions: for percent effect (mortality or growth inhibition) at 200 ppm: 96 h, application rate 200 ppm, L2 larvae, 4 days after infestation, read-out: effect in at least one of the two categories (mortality or growth inhibition); for mortality at 50 ppm / Mortality (%): concentration 50 ppm
Description: Example B3: Activity Against Diabrotica Balteata (Corn Root Worm)
Maize sprouts placed onto an agar layer in 24-well microtiter plates were treated with aqueous test solutions prepared from 10′000 ppm DMSO stock solutions by spraying. After drying, the plates were infested with L2 larvae (6 to 10 per well). The samples were assessed for mortality and growth inhibition in comparison to untreated samples 4 days after infestation.

[3] = tested on: Myzus persicae; experiment: Activity against Myzus persicae (green peach aphid), feeding/contact activity, sunflower leaf discs; conditions: Myzus persicae, foliar; for mortality at 200 ppm: 144 h, application rate 200 ppm, feeding/contact, 6 days after infestation
Description: Example B4: Activity Against Myzus persicae (Green Peach Aphid) Feeding/Contact Activity
Sunflower leaf discs were placed on agar in a 24-well microtiter plate and sprayed with aqueous test solutions prepared from 10′000 ppm DMSO stock solutions. After drying, the leaf discs were infested with an aphid population of mixed ages. The samples were assessed for mortality 6 days after infestation.

[4] = tested on: Myzus persicae; experiment: Activity against Myzus persicae (green peach aphid), systemic activity, pea seedlings; conditions: for mortality at 24 ppm: Myzus persicae
Description: Example B5: Activity Against Myzus persicae (Green Peach Aphid) Systemic Activity
Roots of pea seedlings infested with an aphid population of mixed ages were placed directly in the aqueous test solutions prepared from 10′000 DMSO stock solutions. The samples were assessed for mortality 6 days after placing seedlings in test solutions.

[5] = tested on: Bemisia tabaci; experiment: Activity against Bemisia tabaci (cotton white fly), cotton leaf discs; conditions: for mortality at 200 ppm / mortality at 12.5 ppm: foliar; for mortality at 200 ppm: 144 h, application rate 200 ppm, adult white flies, 6 days after incubation
Description: Example B6: Activity Against Bemisia tabaci (Cotton White Fly)
Cotton leaf discs were placed on agar in 24-well microtiter plates and sprayed with aqueous test solutions prepared from 10′000 ppm DMSO stock solutions. After drying the leaf discs were infested with adult white flies. The samples were checked for mortality 6 days after incubation.

[6] = tested on: Plutella xylostella; experiment: Activity against Plutella xylostella (diamond back moth), artificial diet, eggs; conditions: 192 h, application rate 200 ppm, 8 days after infestation, read-out: effect in at least one of the two categories (mortality or growth inhibition)
Description: Example B9: Activity Against Plutella xylostella (Diamond Back Moth)
24-well microtiter plates with artificial diet were treated with aqueous test solutions prepared from 10′000 ppm DMSO stock solutions by pipetting. After drying, Plutella eggs were pipetted through a plastic stencil onto a gel blotting paper and the plate was closed with it. The samples were assessed for mortality and growth inhibition in comparison to untreated samples 8 days after infestation.

[7] = tested on: Euschistus heros; experiment: Activity against Euschistus heros (neotropical brown stink bug), soybean leaf; conditions: 120 h, application rate 200 ppm, N-2 nymphs, 5 days after infestation, read-out: effect in at least one of the two categories (mortality or growth inhibition)
Description: Example B7: Activity Against Euschistus heros (Neotropical Brown Stink Bug)
Soybean leaf on agar in 24-well microtiter plates were sprayed with aqueous test solutions prepared from 10′000 ppm DMSO stock solutions. After drying the leaf were infested with N-2 nymphs. The samples were assessed for mortality and growth inhibition in comparison to untreated samples 5 days after infestation.

[8] = 144 h, test rate 24 ppm, systemic, 6 days after placing seedlings in test solutions
[9] = Myzus persicae (systemic), concentration 24 ppm

CC[S@@](=N)(=O)c1cc(OC(C)(C)C#N)cnc1-c1nc2cc(C(F)(F)F)cnc2n1C [Compound P9-A, (R)-2-[[5-(ethylsulfonimidoyl)-6-[3-methyl-6-(trifluoromethyl)imidazo[4,5-b]pyridin-2-yl]-3-pyridyl]oxy]-2-methyl-propanenitrile]
percent control (mortality, anti-feedant effect or growth inhibition) at 200 ppm [1]: ≥ 80%
percent effect (mortality or growth inhibition) at 200 ppm [2]: ≥ 80%
mortality at 50 ppm [2]: 80%
mortality at 200 ppm [3]: ≥ 80%
mortality at 24 ppm [4, 8]: ≥ 80%
mortality at 24 ppm [4, 9]: 100%
mortality at 200 ppm [5]: ≥ 80%
percent effect (mortality or growth inhibition) at 200 ppm [6]: ≥ 80%

CC[S@](=N)(=O)c1cc(OC(C)(C)C#N)cnc1-c1nc2cc(C(F)(F)F)cnc2n1C [Compound P9-B, (S)-2-[[5-(ethylsulfonimidoyl)-6-[3-methyl-6-(trifluoromethyl)imidazo[4,5-b]pyridin-2-yl]-3-pyridyl]oxy]-2-methyl-propanenitrile]
percent control (mortality, anti-feedant effect or growth inhibition) at 200 ppm [1]: ≥ 80%
percent effect (mortality or growth inhibition) at 200 ppm [2]: ≥ 80%
mortality at 50 ppm [2]: 100%
mortality at 200 ppm [3]: ≥ 80%
mortality at 24 ppm [4, 8]: ≥ 80%
mortality at 24 ppm [4, 9]: 100%
mortality at 200 ppm [5]: ≥ 80%
percent effect (mortality or growth inhibition) at 200 ppm [6]: ≥ 80%

CCS(=N)(=O)c1cc(C2(C#N)CC2)ccc1-c1nc2cc(C(F)(F)F)cnc2n1C (single isomer, unassigned) [Compound P6-B, 1-[3-(ethylsulfonimidoyl)-4-[3-methyl-6-(trifluoromethyl)imidazo[4,5-b]pyridin-2-yl]phenyl]cyclopropanecarbonitrile]
percent control (mortality, anti-feedant effect or growth inhibition) at 200 ppm [1]: ≥ 80%
Mortality (%) [2]: 80%
Mortality (%) ([4]; Myzus persicae (systemic), concentration 6 ppm): 100%
percent effect (mortality or growth inhibition) at 200 ppm [6]: ≥ 80%

CCS(=N)(=O)c1cc(C(C)(C)C#N)cnc1-c1nc2cc(C(F)(F)F)cnc2n1C (single isomer, unassigned) [Compound P12-A, 2-[5-(ethylsulfonimidoyl)-6-[3-methyl-6-(trifluoromethyl)imidazo[4,5-b]pyridin-2-yl]-3-pyridyl]-2-methyl-propanenitrile]
percent effect (mortality or growth inhibition) at 200 ppm [2]: ≥ 80%
mortality at 200 ppm [3]: ≥ 80%
mortality at 24 ppm [4, 8]: ≥ 80%
mortality at 200 ppm [5]: ≥ 80%
percent effect (mortality or growth inhibition) at 200 ppm [6]: ≥ 80%

CCS(=N)(=O)c1cc(OC(C)(C)C#N)cnc1-c1nc2cc(C(F)(F)F)ncc2n1C (single isomer, unassigned) [Compound P13-A, 2-[[5-(ethylsulfonimidoyl)-6-[3-methyl-6-(trifluoromethyl)imidazo[4,5-c]pyridin-2-yl]-3-pyridyl]oxy]-2-methyl-propanenitrile]
percent effect (mortality or growth inhibition) at 200 ppm [2]: ≥ 80%
mortality at 50 ppm [2]: 80%
mortality at 200 ppm [3]: ≥ 80%
mortality at 12.5 ppm ([3]; Myzus persicae (feeding/contact), concentration 12.5 ppm): 80%
mortality at 24 ppm [4, 8]: ≥ 80%
mortality at 200 ppm [5]: ≥ 80%
percent effect (mortality or growth inhibition) at 200 ppm [6]: ≥ 80%

CCS(=N)(=O)c1cc(OC(C)(C)C#N)cnc1-c1nc2cc(C(F)(F)F)nnc2n1C (single isomer, unassigned) [Compound P15-A, 2-[[5-(ethylsulfonimidoyl)-6-[7-methyl-3-(trifluoromethyl)imidazo[4,5-c]pyridazin-6-yl]-3-pyridyl]oxy]-2-methyl-propanenitrile]
percent control (mortality, anti-feedant effect or growth inhibition) at 200 ppm [1]: ≥ 80%
percent effect (mortality or growth inhibition) at 200 ppm [2]: ≥ 80%
mortality at 12.5 ppm ([2]; concentration 12.5 ppm): 80%
mortality at 200 ppm [3]: ≥ 80%
mortality at 24 ppm [4, 8]: ≥ 80%
mortality at 200 ppm [5]: ≥ 80%
percent effect (mortality or growth inhibition) at 200 ppm [6]: ≥ 80%

CCS(=N)(=O)c1cc(C2(C#N)CC2)ccc1-c1nc2cc(C(F)(F)F)ncc2n1C (single isomer, unassigned) [Compound P18-B, 1-[3-(ethylsulfonimidoyl)-4-[3-methyl-6-(trifluoromethyl)imidazo[4,5-c]pyridin-2-yl]phenyl]cyclopropanecarbonitrile]
mortality at 50 ppm [2]: 100%
mortality at 12.5 ppm ([5]; concentration 12.5 ppm): 80%
percent effect (mortality or growth inhibition) at 200 ppm [7]: ≥ 80%

CCS(=N)(=O)c1cc(C2(C#N)CC2)ccc1-c1nc2cc(C(F)(F)F)ncc2n1C (single isomer, unassigned) [Compound P18-A, 1-[3-(ethylsulfonimidoyl)-4-[3-methyl-6-(trifluoromethyl)imidazo[4,5-c]pyridin-2-yl]phenyl]cyclopropanecarbonitrile]
percent effect (mortality or growth inhibition) at 200 ppm [2]: ≥ 80%
Mortality (%) [2]: 100%
mortality at 200 ppm [3]: ≥ 80%
mortality at 24 ppm [4, 8]: ≥ 80%
Mortality (%) ([5]; concentration 12.5 ppm): 100%
mortality at 200 ppm [5]: ≥ 80%
percent effect (mortality or growth inhibition) at 200 ppm [6]: ≥ 80%

CCS(=N)(=O)c1cc(C2(C#N)CC2)cnc1-c1nc2cc(C(F)(F)F)ncc2n1C (single isomer, unassigned) [Compound P10-A, 1-[5-(ethylsulfonimidoyl)-6-[3-methyl-6-(trifluoromethyl)imidazo[4,5-c]pyridin-2-yl]-3-pyridyl]cyclopropanecarbonitrile]
percent effect (mortality or growth inhibition) at 200 ppm [2]: ≥ 80%
mortality at 200 ppm [3]: ≥ 80%
mortality at 0.781 ppm ([3]; Myzus persicae (feeding/contact), concentration 0.781 ppm): 80%
mortality at 24 ppm [4, 8]: ≥ 80%
mortality at 200 ppm [5]: ≥ 80%
mortality at 12.5 ppm ([5]; concentration 12.5 ppm): 80%
percent effect (mortality or growth inhibition) at 200 ppm [6]: ≥ 80%

CCS(=N)(=O)c1cc(C2(C#N)CC2)cnc1-c1nc2cc(C(F)(F)F)nnc2n1C (racemic) [Compound P2, 1-[5-(ethylsulfonimidoyl)-6-[7-methyl-3-(trifluoromethyl)imidazo[4,5-c]pyridazin-6-yl]-3-pyridyl]cyclopropanecarbonitrile]
percent effect (mortality or growth inhibition) at 200 ppm [2]: ≥ 80%
mortality at 200 ppm [3]: ≥ 80%
mortality at 24 ppm [4, 8]: ≥ 80%
mortality at 200 ppm [5]: ≥ 80%
percent effect (mortality or growth inhibition) at 200 ppm [7]: ≥ 80%

CCS(=N)(=O)c1cc(OC(C)(C)C#N)c(C)nc1-c1nc2cc(C(F)(F)F)ncc2n1C (single isomer, unassigned) [Compound P17-A, 2-[[5-(ethylsulfonimidoyl)-2-methyl-6-[3-methyl-6-(trifluoromethyl)imidazo[4,5-c]pyridin-2-yl]-3-pyridyl]oxy]-2-methyl-propanenitrile]
percent effect (mortality or growth inhibition) at 200 ppm [2]: ≥ 80%
mortality at 200 ppm [3]: ≥ 80%
mortality at 24 ppm [4, 8]: ≥ 80%
mortality at 200 ppm [5]: ≥ 80%
percent effect (mortality or growth inhibition) at 200 ppm [6]: ≥ 80%

CCS(=N)(=O)c1cc(C2(C#N)CC2)cnc1-c1nc2cc(C(F)(F)F)cnc2n1C (single isomer, unassigned) [Compound P16-A, 1-[5-(ethylsulfonimidoyl)-6-[3-methyl-6-(trifluoromethyl)imidazo[4,5-b]pyridin-2-yl]-3-pyridyl]cyclopropanecarbonitrile]
percent effect (mortality or growth inhibition) at 200 ppm [2]: ≥ 80%
mortality at 200 ppm [3]: ≥ 80%
mortality at 3.125 ppm ([3]; Myzus persicae (feeding/contact), concentration 3.125 ppm): 100%
mortality at 24 ppm [4, 8]: ≥ 80%
mortality at 200 ppm [5]: ≥ 80%
mortality at 12.5 ppm ([5]; concentration 12.5 ppm): 100%
percent effect (mortality or growth inhibition) at 200 ppm [6]: ≥ 80%

CCS(=N)(=O)c1cc(C2(C#N)CC2)ccc1-c1nc2cc(C(F)(F)F)ncc2n1C (racemic) [Compound P18, 1-[3-(ethylsulfonimidoyl)-4-[3-methyl-6-(trifluoromethyl)imidazo[4,5-c]pyridin-2-yl]phenyl]cyclopropanecarbonitrile]
percent effect (mortality or growth inhibition) at 200 ppm [2]: ≥ 80%
mortality at 200 ppm [3]: ≥ 80%
mortality at 24 ppm [4, 8]: ≥ 80%
mortality at 200 ppm [5]: ≥ 80%
percent effect (mortality or growth inhibition) at 200 ppm [7]: ≥ 80%
